The target of assay [1] is T1, Estrogen Receptor (ERα) in MCF-7 human ductal carcinoma breast cell line (Homo sapiens, UniProt P03372).
T1 construct: endogenous in cells; host or cells: MCF-7
T1 sequence (P03372 1-595): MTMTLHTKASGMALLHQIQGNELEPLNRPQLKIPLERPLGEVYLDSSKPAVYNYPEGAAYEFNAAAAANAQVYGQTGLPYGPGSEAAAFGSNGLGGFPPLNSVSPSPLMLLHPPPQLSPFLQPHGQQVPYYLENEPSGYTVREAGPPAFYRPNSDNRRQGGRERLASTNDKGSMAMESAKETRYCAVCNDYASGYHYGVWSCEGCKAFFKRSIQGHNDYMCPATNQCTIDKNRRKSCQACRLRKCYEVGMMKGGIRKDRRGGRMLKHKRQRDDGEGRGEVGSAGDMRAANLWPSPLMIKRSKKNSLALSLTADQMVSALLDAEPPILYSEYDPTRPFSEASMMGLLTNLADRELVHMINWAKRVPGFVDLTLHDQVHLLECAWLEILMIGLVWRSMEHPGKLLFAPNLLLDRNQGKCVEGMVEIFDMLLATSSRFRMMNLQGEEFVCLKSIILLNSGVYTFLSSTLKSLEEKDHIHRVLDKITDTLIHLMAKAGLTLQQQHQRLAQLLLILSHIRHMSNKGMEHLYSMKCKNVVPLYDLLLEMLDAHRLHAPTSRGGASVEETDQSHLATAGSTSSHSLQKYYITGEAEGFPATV
As to the kind of experiment: MCF-7 ER degradation assay (cell based immuno-fluorescence). The conditions noted are these: MCF-7 cells; for DC50: 18-22 hours incubation, 50% reduction of ERα expression, single experiment or average of two or more, read-out: MCF-7 ER degradation IC50. How it is done: MCF-7 ER Degradation Assay
The ability of compounds to down-regulate Estrogen Receptor (ER) numbers was assessed in a cell based immuno-fluorescence assay using the MCF-7 human ductal carcinoma breast cell line. MCF-7 cells were revived directly from a cryovial (approx 5×10^6 cells) in Assay Medium (phenol red free Dulbecco's Modified Eagle's medium (DMEM); Sigma D5921) containing 2 mM L-Glutamine and 5% (v/v) Charcoal/Dextran treated foetal calf serum. Cells were syringed once using a sterile 18 G×1.5 inch (1.2×40 mm) broad gauge needle and cell density was measured using a Coulter Counter (Beckman). Cells were further diluted in Assay Medium to a density of 3.75×10^4 cells per mL and 40 μL per well added to transparent bottomed, black, tissue culture-treated 384 well plates (Costar, No. 3712) using a Thermo Scientific Matrix WellMate or Thermo Multidrop. Following cell seeding, plates were incubated overnight at 37° C., 5% CO2 (Liconic carousel incubator). Test data was generated using the LabCyte Echo™ model 555 compound reformatter which is part of an automated workcell (Integrated Echo 2 workcell). Compound stock solutions (10 mM) of the test compounds were used to generate a 384 well compound dosing plate (Labcyte P-05525-CV1). 40 μL of each of the 10 mM compound stock solutions was dispensed into the first quadrant well and then 1:100 step-wise serial dilutions in DMSO were performed using a Hydra II (MATRIX UK) liquid handling unit to give 40 μL of diluted compound into quadrant wells 2 (0.1 mM), 3 (1 μM) and 4 (0.01 μM), respectively. 40 μL of DMSO added to wells in row P on the source plate allowed for DMSO normalisation across the dose range. To dose the control wells 40 μL of DMSO was added to row O1 and 40 μL of 100 μM fulvestrant in DMSO was added to row O3 on the compound source plate.
The Echo uses acoustic technology to perform direct microplate-to-microplate transfers of DMSO compound solutions to assay plates. The system can be programmed to transfer volumes as low as 2.5 nL in multiple increments between microplates and in so doing generates a serial dilution of compound in the assay plate which is then back-filled to normalise the DMSO concentration across the dilution range. Compounds were dispensed onto the cell plates with a compound source plate prepared as above producing a 12 point duplicate […] dose range with 3-fold dilutions and one final 10-fold dilution using the Integrated Echo 2 workcell. The maximum signal control wells were dosed with DMSO to give a final concentration of 0.3%, and the minimum signal control wells were dosed with fulvestrant to give a final concentration of 100 nM accordingly. Plates were further incubated for 18-22 hours at 37° C., 5% CO2 and then fixed by the addition of 20 μL of 11.1% (v/v) formaldehyde solution (in phosphate buffered saline (PBS)) giving a final formaldehyde concentration of 3.7% (v/v). Cells were fixed at room temperature for 20 mins before being washed two times with 250 μL PBS/Proclin (PBS with a Biocide preservative) using a BioTek platewasher, 40 μL of PBS/Proclin was then added to all wells and the plates stored at 4° C. The fixing method described above was carried out on the Integrated Echo 2 workcell. Immunostaining was performed using an automated AutoElisa workcell. The PBS/Proclin was aspirated from all wells and the cells permeabilised with 40 μL PBS containing 0.5% Tween™ 20 (v/v) for 1 hour at room temperature. The plates were washed three times in 250 μL of PBS/0.05% (v/v) Tween 20 with Proclin (PBST with a Biocide preservative) and then 20 μL of ERα (SP1) Rabbit monoclonal antibody (Thermofisher) 1:1000 in PBS/Tween™/3% (w/v) Bovine Serum Albumin was added. The plates were incubated overnight at 4° C. (Liconic carousel incubator) and then washed three times in 250 μL of PBS/0.05% (v/v) Tween™ 20 with Proclin (PBST). […]

In assay [2] the target is T2, recombinant human Estrogen Receptor alpha ligand binding domain, residues 307-554 (ER alpha-LBD (GST)) (Homo sapiens, UniProt P03372).
T2 construct: made in house
T2 sequence (P03372 307-554): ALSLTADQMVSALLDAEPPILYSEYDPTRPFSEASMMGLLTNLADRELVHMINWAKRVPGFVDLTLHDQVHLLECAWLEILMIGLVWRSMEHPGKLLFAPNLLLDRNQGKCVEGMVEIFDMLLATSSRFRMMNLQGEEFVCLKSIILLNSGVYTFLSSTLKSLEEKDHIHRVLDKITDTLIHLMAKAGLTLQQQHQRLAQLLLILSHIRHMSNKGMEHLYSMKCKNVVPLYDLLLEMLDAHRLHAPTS
As to the kind of experiment: ERα binding assay (LanthaScreen TR-FRET competition). The note with it: TR-FRET competition with Fluormone ES2 tracer, 4 hours at room temperature; single experiment or average of two or more. On the procedure:
The ability of compounds to bind to isolated Estrogen Receptor Alpha Ligand binding domain (ER alpha-LBD (GST)) was assessed in competition assays using a LanthaScreen™ Time-Resolved Fluorescence Resonance Energy Transfer (TR-FRET) detection end-point. For the LanthaScreen TR-FRET endpoint, a suitable fluorophore (Fluormone ES2, ThermoFisher, Product code P2645) and recombinant human Estrogen Receptor alpha ligand binding domain, residues 307-554 (expressed and purified in-house) were used to measure compound binding. The assay principle is that ER alpha-LBD (GST) is added to a fluorescent ligand to form a receptor/fluorophore complex. A terbium-labelled anti-GST antibody (Product code PV3551) is used to indirectly label the receptor by binding to its GST tag, and competitive binding is detected by a test compound's ability to displace the fluorescent ligand, resulting in a loss of TR-FRET signal between the Tb-anti-GST antibody and the tracer. The assay was performed as follows with all reagent additions carried out using the Beckman Coulter BioRAPTR FRD microfluidic workstation: • 1. Acoustic dispense 120 nL of the test compound into a black low volume 384 well assay plates. • 2. Prepare 1×ER alpha-LBD/Tb-antiGST Ab in ES2 screening buffer and incubate for 15 minutes. • 3. Dispense 6 μL of the […] reagent into each well of the assay plate followed by 6 μL of Fluorophore reagent into each well of the assay plate • 4. Cover the assay plate to protect the reagents from light and evaporation, and incubate at room temperature for 4 hours. • 5. Excite at 337 nm and measure the fluorescent emission signal of each well at 490 nm and 520 nm using the BMG PheraSTAR.
Compounds were dosed directly from a compound source microplate containing serially diluted compound (4 wells containing 10 mM, […] and 10 nM final compound respectively) to an assay microplate using the Labcyte Echo 550. The Echo 550 is a liquid handler that uses acoustic technology to perform direct microplate-to-microplate transfers of DMSO compound solutions and the system can be programmed to transfer multiple small nL volumes of compound from the different source plate wells to give the desired serial dilution of compound in the assay which is then back-filled to normalise the DMSO concentration across the dilution range.
In total 120 nL of compound plus DMSO were added to each well and compounds were tested in a 12-point concentration response format over a final compound concentration range of 10, 2.917, 1.042, 0.2083, 0.1, 0.0292, 0.0104, 0.002083, 0.001, 0.0002917, 0.0001042, and 0.00001 μM respectively. TR-FRET dose response data obtained with each compound was exported into a suitable software package (such as Origin or Genedata) to perform curve fitting analysis. Competitive ER alpha binding was expressed as an IC50 value. This was determined by calculation of the concentration of compound that was required to give a 50% reduction in tracer compound binding to ER alpha-LBD.
For orientation: TR-FRET usually uses a lanthanide donor and a delayed reading to cut background.

Usually IC50 stands for the concentration that gives 50% inhibition. As to `Cc1ncsc1-c1ccc(CNC(=O)[C@@H]2C[C@@H](O)CN2C(=O)[C@@H](NC(=O)CCCN2CCN(CCCOc3cc(F)c([C@@H]4c5[nH]c6ccccc6c5C[C@@H](C)N4CC(C)(C)F)c(F)c3)CC2)C(C)(C)C)cc1` [Example 1, (2S,4R)-1-((S)-2-(4-(4-(3-(3,5-Difluoro-4-((1R,3R)-2-(2-fluoro-2-methylpropyl)-3-methyl-2,3,4,9-tetrahydro-1H-pyrido[3,4-b]indol-1-yl)phenoxy)propyl)piperazin-1-yl)butanamido)-3,3-dimethylbutanoyl)-4-hydroxy-N-(4-(4-methylthiazol-5-yl)benzyl)pyrrolidine-2-carboxamide], the DC50 in assay [1] was found to be 0.7 nM. Moreover, the IC50 in assay [2] worked out at 0.9 nM.
Turning to `Cc1ncsc1-c1ccc(CNC(=O)[C@@H]2C[C@@H](O)CN2C(=O)[C@@H](NC(=O)CN2CCN(CCCCCOc3cc(F)c([C@@H]4c5[nH]c6ccccc6c5C[C@@H](C)N4CC(C)(C)F)c(F)c3)CC2)C(C)(C)C)cc1` [Example 2, (2S,4R)-1-((S)-2-(2-(4-(5-(3,5-Difluoro-4-((1R,3R)-2-(2-fluoro-2-methylpropyl)-3-methyl-2,3,4,9-tetrahydro-1H-pyrido[3,4-b]indol-1-yl)phenoxy)pentyl)piperazin-1-yl)acetamido)-3,3-dimethylbutanoyl)-4-hydroxy-N-(4-(4-methylthiazol-5-yl)benzyl)pyrrolidine-2-carboxamide], the DC50 in assay [1] was 2.9 nM. Moreover, in assay [2], the half-maximal inhibitory concentration (IC50) was 0.6 nM.
For the compound `Cc1ncsc1-c1ccc(CNC(=O)[C@@H]2C[C@@H](O)CN2C(=O)[C@@H](NC(=O)COCC/C=C/CCOc2ccc([C@@H]3c4[nH]c5ccccc5c4C[C@@H](C)N3CC(F)F)nc2)C(C)(C)C)cc1` [Example 21, (2S,4R)-1-((S)-2-(2-(((E)-6-((6-((1S,3R)-2-(2,2-Difluoroethyl)-3-methyl-2,3,4,9-tetrahydro-1H-pyrido[3,4-b]indol-1-yl)pyridin-3-yl)oxy)hex-3-en-1-yl)oxy)acetamido)-3,3-dimethylbutanoyl)-4-hydroxy-N-(4-(4-methylthiazol-5-yl)benzyl)pyrrolidine-2-carboxamide], in assay [1], the DC50 turned out to be 300 nM. In addition, the IC50 in assay [2] was 13 nM.
As for `Cc1ncsc1-c1ccc(CNC(=O)[C@@H]2C[C@@H](O)CN2C(=O)[C@@H](NC(=O)COCCCCOCCOc2ccc([C@@H]3c4[nH]c5ccccc5c4C[C@@H](C)N3CC(F)F)nc2)C(C)(C)C)cc1` [Example 24, (2S,4R)-1-((S)-2-(2-(4-(2-((6-((1S,3R)-2-(2,2-Difluoroethyl)-3-methyl-2,3,4,9-tetrahydro-1H-pyrido[3,4-b]indol-1-yl)pyridin-3-yl)oxy)ethoxy)butoxy)acetamido)-3,3-dimethylbutanoyl)-4-hydroxy-N-(4-(4-methylthiazol-5-yl)benzyl)pyrrolidine-2-carboxamide], in assay [1], the DC50 came out at 300 nM. In assay [2], the IC50 worked out at 18 nM.
With `Cc1ncsc1-c1ccc(CNC(=O)[C@@H]2C[C@@H](O)CN2C(=O)[C@@H](NC(=O)COCCCOCCOc2cc(F)c([C@@H]3c4[nH]c5ccccc5c4C[C@@H](C)N3CC(C)(C)F)c(F)c2)C(C)(C)C)cc1` [Example 25, (2S,4R)-1-((S)-2-(2-(3-(2-(3,5-Difluoro-4-((1R,3R)-2-(2-fluoro-2-methylpropyl)-3-methyl-2,3,4,9-tetrahydro-1H-pyrido[3,4-b]indol-1-yl)phenoxy)ethoxy)propoxy)acetamido)-3,3-dimethylbutanoyl)-4-hydroxy-N-(4-(4-methylthiazol-5-yl)benzyl)pyrrolidine-2-carboxamide], in assay [1] (0.3 μM, ER degradation by fulvestrant at 0.3 μM is defined as 100%), the “ER degradation ≥ 90% at 0.3 μM” value was “••”. The IC50 in assay [2] stood at 0.5 nM.

The values above are taken from patent US10519152B2, “Compounds and their use in treating cancer” (AstraZeneca AB, priority 2017, dated 2019).
